From patent publication US9297798B2, “Therapeutic approach for polyglutamine degeneration” (The Chinese University of Hong Kong, priority 2013, dated 2016)

Experiments:
[1] = test system: Drosophila polyQ disease model; assay: Pseudopupil assay in transgenic Drosophila polyQ model (RNA and protein toxicities); format: in vivo; conditions: third instar larvae incubated with peptides (100 μM each); pseudopupil assay on 0-3 day-old adult flies
Method: FIG. 7. (A) A co-treatment approach to target RNA and protein toxicities of polyQ diseases. (B) The combined effect of P3 and QBP1 peptides on suppressing neurodegeneration in a transgenic Drosophila polyQ model. Third instar larvae were incubated with corresponding peptides (100 μM each). Pseudopupil assay was performed on 0-3 day-old adult flies. The average number of rhabdomeres per ommatidium (single eye unit of the adult flies) is shown at the bottom left hand corner of each image. (C) Statistical analysis of (B). “WT” and “MT5” represent wildtype and mutant P3 peptides respectively. “SCR” denotes a scrambled sequence of QBP1. * represents P<0.05; ** represents P<0.01. Error bars represent standard deviation. Because both expanded CAG RNA and polyQ protein contribute to neurotoxicity, a therapeutic strategy that simultaneously targets these toxic species would be ideal for treatment. A similar combined therapeutic approach was recently reported in cancer treatment (Suzuki, et al., 2013), indicating its therapeutic potential of this strategy. We have performed a pilot study to simultaneously target both the RNA and protein toxicities using a well-studied protein toxicity peptide QBP1 (Nagai, et al., 2000) and P3, and has obtained satisfactory suppression (FIG. 7A).

[2] = test system: GRP78/BiP expression in MJDCAG78-expressing HEK293 cells; assay: Real-time PCR of GRP78/BiP in MJDCAG78-expressing HEK293 cells; format: cell-based; conditions: MJDCAG78-expressing HEK293 cells (FIG. 5D)
Excerpt: (§1) FIG. 5. Depicts the distinct stress responses induced by toxic expanded CAG-RNA and polyQ protein which can be differentiated by pre-rRNA and GRP78/BiP gene expression respectively in transgenic Drosophila and mammalian cell models. […] “dpe” denotes days post eclosion. The CAG repeat sequence of the DsRedCAG constructs is located in the 3′ UTR, thus expanded CAG RNA is produced but not expanded polyglutamine protein. Only RNA toxicity is observed in the DsRedCAG model. […] The MJDCAG constructs express both expanded CAG RNA and polyglutamine protein. […] The MJDCAA/G construct only generates polyQ protein toxicity because the continuity of the expanded CAG sequence is disrupted which disrupts RNA toxicity. (D) Real-time PCR analysis of the effects of RNA and protein toxicity peptidylic inhibitors on pre-45s rRNA and GRP78/BiP expression in an MJD disease cell model. HEK293 cells expressing a polynucleotide encoding MJDCAG78 reduced pre-45s rRNA transcription and induced GRP78/BiP expression. […] Cells expressing a polynucleotide encoding MJDCAG27 served as a control. “SCR” and “P3MT5” represent scrambled QBP1 and mutant P3 peptides respectively.

[3] = test system: polyQ protein toxicity; conditions: reported in literature, in vitro and in vivo; cited from earlier work
[4] = test system: pre-45s rRNA transcription in MJDCAG78-expressing HEK293 cells; assay: Real-time PCR of pre-45s rRNA in MJDCAG78-expressing HEK293 cells; format: cell-based; conditions: MJDCAG78-expressing HEK293 cells (FIG. 5D)
Excerpt: as §1

[5] = test system: interaction between purified NCL and expanded CAG RNA (NCL: CAG78 RNA complex); assay: Competition assay: GST-NCL / CAG78 RNA pull-down on glutathione beads, bound RNA by RT-PCR; format: binding
Excerpt: Purified GST-nucleolin (GST-NCL) protein was purchased from Abnova (H00004691-P01), and the control GST protein was expressed and purified as previously described (Tsoi H, et al. 2011). The CAG78 (SEQ ID NO:18) and CUG78 (SEQ ID NOP:19) RNAs were synthesized from a pcDNA3.1-MJDCAG78 PCR product, using the MEGAscript kit (Ambion) with the following primer pairs: T7CAGF, 5′-TAA AC GACTCACTATAGGGAGAAGAAGCCTACTTTGAAAAA-3′ (SEQ ID NO:20) and CAGR, 5′-CTG TCC TGA TAG GTC CCG-3′ (SEQ ID NO:21) for CAG78 (SEQ ID NO:18); and T7CUGF, 5′-TAATACGACTCACTATAGGGAGAAGACACGACTATCCAGGGC-3′ (SEQ ID NO:22) and CUGR, 5′-CTT CGG ATG AAA CTT TTT-3′ (SEQ ID NO:23) for CUG78 (SEQ ID NO:19). To perform in vitro protein-RNA interaction, 50 ng of GST protein was first captured by glutathione Sepharose beads (GE Healthcare). The purified in vitro transcribed RNA (10 pmol) was allowed to bind with GST-coated glutathione Sepharose beads and the mixture was incubated at 4° C. overnight in a 500-μL reaction volume. Before elution, the protein-RNA mixture was washed three times with 1 mL of binding buffer [20 mM Hepes, pH 7.4, 150 mM NaCl, 5 mM MgCl2, 0.5% Nonidet P-40, 40 units RNAsin (Promega), and 1 mg/mL yeast tRNA (Sigma)]. Bound RNA was then extracted for RT-PCR as described in Tsoi H, et al. 2011.
These peptides were then tested for the ability to interact with expanded CAG RNA. […]

[6] = test system: DsRedCAG100 RNA toxicity; assay: Pseudopupil assay in DsRedCAG100 Drosophila fed with peptide; format: in vivo; conditions: larvae fed with synthetic peptide at 100 μM until adulthood
Method: FIG. 3. Illustrates an in vivo reduction in expanded CAG-RNA toxicity by feeding Drosophila fly lines that overexpress DsRedCAG100 RNA with synthetic Nucleolin P3 peptide. DsRedCAG0 (A-C) and DsRedCAG100 (D-F) F1 larvae were fed with 100 μM of NCL P3 peptide until adulthood. Representative images of rhabdomeres (light-sensing organelles in eyes) taken from 1 day-old adult flies are shown. The average number of rhabdomeres per ommatidium (single eye unit of the adult flies) is shown at the bottom left hand corner of each image, and “+/−” represents s.e.m. from 3 independent sets of experiments. “NCL P3WT” represents wildtype NCL P3 peptide while “NCL P3MTc” represents mutant c NCL P3 peptide.
DsRedCAG RNA was expressed in Drosophila fly eyes. DsRedCAG0 (FIGS. 3A-C) and DsRedCAG100 (FIGS. 3D-F) using a pseudopupil assay (Chan W M, et al. 2011). F1 larvae were fed with 100 μM of NCL P3 peptides until adulthood. The overexpression caused the integrity of the internal eye structure to deteriorate, as indicated by the reduced number of rhabdomeres which are subcellular organelles responsible for phototransduction (FIG. 3D). DsRedCAG100 larvae were fed with synthetic P3MTc (FIG. 3E) or P3 (FIG. 3F) peptide at 100 μM.

Substance | suppression of neurodegeneration in Drosophila polyQ disease model [1] | GRP78/BiP induction [2] | suppression of polyQ protein toxicity [3] | pre-45s rRNA transcription [4] | disruption of the interaction between purified NCL and expanded CAG RNA, dose dependence ([5]; P3 at 10, 50, 100, 250, and 750 μM with NCL and CAG78 RNA (FIG. 1D)) | interference with the interaction between purified NCL and expanded CAG RNA ([5]; Ten μM of each peptide with purified GST-NCL and CAG78 RNA (FIG. 1C)) | suppression of DsRedCAG100 RNA toxicity (pseudopupil assay score) [6]
S N W K W W P G I F D (SNWKWWPGIFD; synthetic polyQ-mediated toxicity inhibitor peptide QBP1) [reference compound] | substantial suppression | suppressed GRP78/BiP induction | capable of suppressing polyQ protein toxicity both in vitro and in vivo | restored pre-45s rRNA transcription | – | – | –
VPQNQNGKSKGYAF (synthetic nucleolin RNA recognition motif (RRM), RRM domain of nucleolin, RRM-related sequence core amino acid sequence P5) [Peptide P5] | – | – | – | – | able to interfere with the interaction between purified NCL and expanded CAG RNA | able to interfere with the interaction between purified NCL and expanded CAG RNA | –
DGKSKGIAAIEAK (synthetic nucleolin RNA recognition motif (RRM), RRM domain of nucleolin, RRM-related sequence core amino acid sequence P3MT5/MTc) [Peptide P3MT5] | – | did not demonstrate such suppressive effects | – | did not demonstrate such suppressive effects | – | – | did not exert any rescuing effect
